Measurements published in US10188634B2, “3-(3H-imidazo[4,5-C]pyridin-2-yl)-1 H-pyrazolo[4,3-B]pyridines and therapeutic uses thereof” (Samumed, LLC, priority 2015, dated 2019).

Tests used:
Format in all cases: cell-based
SW480 colon cancer cells = test: Cell viability assay (CellTiter-Blue) in SW480 colon cancer cells; settings: Homo sapiens, 96 h; for EC50: four days incubation, CellTiter-Blue cell viability; for inhibition at 10 µM: four days, CellTiter-Blue, read-out: percent inhibition at 10 μM (given for EC50 of >10 μM)
Method: Representative compounds were screened using the following assay procedure to assess the effect on cell viability as described below.
Each compound was dissolved in DMSO as a 10 mM stock and used to prepare compound source plates. Serial dilution (1:3, 8-point dose-response curves from 10 μM to 0.004 μM) and compound transfer was performed using the ECHO 550 (Labcyte, Sunnyvale, Calif.) into 96-well clear bottom, black-walled plates (Corning-Costar).
Approximately 2×10^3 SW480 colon cancer cells were seeded into each well and allowed to incubate in the presence or absence of compound for four days at 37° C./5% CO2. Eight replicates of DMSO-treated cells served as controls and cells treated with compound were performed in duplicate.
After incubation, 20 μL of CellTiter-Blue (Promega) was added to each well allowed to incubate for approximately 3 hours. This reagent was a buffered solution which contains resazurin, metabolically active cells were able to reduce rezarurin (blue) into resorufin (pink) which was highly fluorescent. This measured fluorescence was used as a readout for cell viability.
After incubation, the plates were read at Ex 560 nm Em 590 nm (Cytation 3, BioTek). Dose-response curves were generated and EC50 concentration values were calculated using non-linear regression curve fit in the GraphPad Prism (San Diego, Calif.) or Dotmatics' Studies Software (Bishops Stortford, UK). For EC50 of >10 μM, the percent inhibition at 10 μM is provided.

[1] = tested on: Wnt activity (Sp5-Luc reporter, human Sp5 promoter with eight TCF/LEF binding sites) in SW480 colon carcinoma cells; test: Screening assay for Wnt activity: Sp5-Luc reporter gene assay in SW480 cells; settings: 10-point dose-response starting from 10 μM, overnight incubation
Description: The screening assay for Wnt activity is described as follows. Reporter cell lines can be generated by stably transducing cancer cell lines (e.g., colon cancer) or primary cells (e.g., IEC-6 intestinal cells) with a lentiviral construct that includes a Wnt-responsive promoter driving expression of the firefly luciferase gene.
SW480 colon carcinoma cells were transduced with a lentiviral vector expressing luciferase with a human Sp5 promoter consisting of a sequence of eight TCF/LEF binding sites. SW480 cells stably expressing the Sp5-Luc reporter gene and a hygromycin resistance gene were selected by treatment with 150 μg/mL of hygromycin for 7 days. These stably transduced SW480 cells were expanded in cell culture and used for all further screening activities. Each compound was dissolved in DMSO as a 10 mM stock and used to prepare compound source plates. Serial dilution (1:3, 10-point dose-response curves starting from 10 μM) and compound transfer was performed using the ECHO 550 (Labcyte, Sunnyvale, Calif.) into 384-well white solid bottom assay plates (Greiner Bio-One) with appropriate DMSO backfill for a final DMSO concentration of 0.1%. For Sp5-Luc reporter gene assays, the cells were plated at 4,000 cells/well in 384-well plates with medium containing 1% fetal bovine serum and incubated overnight at 37° C. and 5% CO2. Following incubation, 20 μl of BrightGlo luminescence reagent (Promega) was added to each well of the 384-well assay plates. The plates were placed on an orbital shaker for 2 min and then luminescence was quantified using the Envision (Perkin Elmer) plate reader. Readings were normalized to DMSO only treated cells, and normalized activities were utilized for EC50 calculations using the dose-response log (inhibitor) vs. response -variable slope (four parameters) nonlinear regression feature available in GraphPad Prism 5.0 (or Dotmatics). For EC50 of >10 μM, the percent inhibition at 10 μM is provided.

IL-6 in THP-1 cells = test: Inhibition of IL-6 in LPS-stimulated THP-1 human monocyte cells (HTRF); settings: 500 ng/mL LPS, 22 hours, IL-6 HTRF
Method: Human Monocyte Cell Culture: Human monocyte cell line (THP-1 cells; Catalog # TIB-202, ATCC, Manassas, Va.) were cultured in Roswell Park Memorial Institute (RPMI) 1640 Medium (Catalog #21870-100, Buffalo, N.Y.) with 1% L-glutamine, 1% HEPES, 1% Sodium Pyruvate, 2% Sodium Bicarbonate supplemented with 100 units/mL penicillin, 50 μg/mL streptomycin, 2-mercaptoethanol (0.05 mM) [basal medium] and 10% fetal bovine serum (Catalog #16140089, Life Technologies, Carlsbad, Calif.) at 37° C. and 5% CO2.
Compound Screening: THP-1 cells were cultured in basal media with 1% FBS for 24 hours before the start of the assay. Each compound was dissolved in DMSO as a 10 mM stock and used to prepare compound source plates. Serial dilution (1:3, 10-point dose-response curves starting from 10 μM) and compound transfer was performed using the ECHO 550 (Labcyte, Sunnyvale, Calif.) into 384-well white low volume assay plates (Greiner Bio-One) with appropriate DMSO backfill for a final DMSO concentration of 0.1%. THP-1 cells were plated at 5000 cells/well in the 384-well plates and incubated at 37° C. for 2 h. 500 ng/mL of LPS was added after 2 hours and cells were incubated for another 22 hours at 37° C. Plates were spun in a centrifuge for 1 minute at […] and a mixture of anti-IL6 XL665, and anti-IL6 Cryptate diluted in reconstitution buffer (Cisbio Inc.) was added to each well. Following incubation for 3 hrs at room temperature, Homogeneous Time-Resolved Fluorescence (HTRF) was measured using the Envision (Perkin Elmer) at 665 nm and […]. The ratio of fluorescence at 665 nm to 620 nm was used as a readout for IL6 quantification. All samples were processed in duplicate. Readings were normalized to DMSO treated cells and normalized activities were utilized for EC50 calculations using the dose-response log (inhibitor) vs. response -variable slope (four parameters) nonlinear regression feature available in GraphPad Prism 5.0 (or Dotmatics). For EC50 of >10 μM, the percent inhibition at 10 μM is provided.

[2] = tested on: LL29 cells (primary human fibroblasts derived from IPF patients) treated with TGF-β1, α-smooth muscle actin; test: Inhibition of the fibrotic process: αSMA staining in TGF-β1 treated primary human fibroblasts from IPF patients (LL29 cells); settings: Fibroblast, 96 h; for EC50: LL29 cells treated with TGF-β1 (20 ng/mL), 4 days
Description: Representative compounds were screened using primary human fibroblasts (derived from IPF patients) treated with TGF-β1 to determine their ability to inhibit the fibrotic process.
Human Fibroblast Cell Culture: Primary human fibroblasts derived from IPF patients (LL29 cells) [^1Xiaoqiu Liu, et.al., “Fibrotic Lung Fibroblasts Show Blunted Inhibition by cAMP Due to Deficient cAMP Response Element-Binding Protein Phosphorylation”, Journal of Pharmacology and Experimental Therapeutics (2005), 315(2), 678-687; ^2Watts, K. L., et.al., “RhoA signaling modulates cyclin D1 expression in human lung fibroblasts; implications for idiopathic pulmonary fibrosis”, Respiratory Research (2006), 7(1), 88] were obtained from American Type Culture Collection (ATCC) and expanded in F12 medium supplemented with 15% Fetal Bovine Serum and Penicillin/Streptomycin.
Compound Screening: Each compound was dissolved in DMSO as a 10 mM stock and used to prepare compound source plates. […] LL29 cells are plated at 1,500 cells/well in 80 μL/well F12 medium supplemented with 1% Fetal Bovine Serum. One hour after addition of the cells, TGF-β1 (Peprotech; 20 ng/mL) was added to the plates to induce fibrosis (ref. 1 and 2 above). Wells treated with TGF-β1 and containing DMSO were used as controls. Cells were incubated at 37° C. and 5% CO2 for 4 days. Following incubation for 4 days, SYTOX green nucleic acid stain (Life Technologies [Thermo Fisher Scientific]) was added to the wells at a final concentration of 1 μM and incubated at room temperature for 30 min. Cells were then fixed using 4% formaldehyde (Electron Microscopy Sciences), washed 3 times with PBS followed by blocking and permeabilization using 3% Bovine Serum Albumin (BSA; Sigma) and 0.3% Triton X-100 (Sigma) in PBS. Cells were then stained with antibody specific to α-smooth muscle actin (αSMA; Abcam) (ref. 1 and 2 above) in 3% Bovine Serum Albumin (BSA; Sigma) and 0.3% Triton X-100 (Sigma) in PBS, and incubated overnight at 4° C. Cells were then washed 3 times with PBS, followed by incubation with Alexa Flor-647 conjugated secondary antibody (Life Technologies [Thermo Fisher Scientific]) and DAPI at room temperature for 1 hour. Cells were then washed 3 times with PBS and plates were sealed for imaging. αSMA staining was imaged by excitation at 630 nm and emission at 665 nm and quantified using the Compartmental Analysis program on the CellInsight CX5 (Thermo Scientific). Dead or apoptotic cells were excluded from analysis based on positive SYTOX green staining. % of total cells positive for αSMA were counted in each well and normalized to the average of 11 wells treated with TGF-β1 on the same plate using Dotmatics' Studies Software. The normalized averages (fold change over untreated) of 3 replicate wells for each compound concentration were used to create dose-responses curves and EC50 values were calculated using non-linear regression curve fit in the Dotmatics' Studies Software. For EC50 of >10 μM, the percent inhibition at 10 μM is provided.

| Compound | EC50 (SW480 colon cancer cells) | EC50 [1] | EC50 (IL-6 in THP-1 cells) | EC50 [2] | inhibition at 10 µM (SW480 colon cancer cells) | inhibition at 10 µM ([2]; LL29 cells treated with TGF-β1, 4 days, at 10 μM, read-out: percent inhibition in brackets (given for EC50 >10 μM)) |
| --- | --- | --- | --- | --- | --- | --- |
| CN1CCN(c2cncc3[nH]c(-c4n[nH]c5ccc(-c6cncc(OCc7ccccc7)c6)nc45)nc23)CC1 [Compound 618, 5-(5-(Benzyloxy)pyridin-3-yl)-3-(7-(4-methylpiperazin-1-yl)-3H-imidazo[4,5-c]pyridin-2-yl)-1H-pyrazolo[4,3-b]pyridine] | 4.6 µM | 4.63 µM | 1.6 µM | 1.9 µM | – | – |
| c1cc(-c2cncc3[nH]c(-c4n[nH]c5ccc(-c6cncc(OCCN7CCCC7)c6)nc45)nc23)co1 [Compound 646, 3-(7-(Furan-3-yl)-3H-imidazo[4,5-c]pyridin-2-yl)-5-(5-(2-(pyrrolidin-1-yl)ethoxy)pyridin-3-yl)-1H-pyrazolo[4,3-b]pyridine] | > 10 µM | 4.62 µM | 0.435 µM | 3.84 µM | 33.1% | – |
| COc1cncc(-c2ccc3[nH]nc(-c4nc5c(-c6ccoc6)cncc5[nH]4)c3n2)c1 [Compound 648, 3-(7-(Furan-3-yl)-3H-imidazo[4,5-c]pyridin-2-yl)-5-(5-methoxylpyridin-3-yl)-1H-pyrazolo[4,3-b]pyridine] | 1.77 µM | 0.849 µM | 7.04 µM | 0.404 µM | – | – |
| CN(C)CCNc1cc(F)cc(-c2cncc3[nH]c(-c4n[nH]c5ccc(-c6cnccn6)nc45)nc23)c1 [Compound 748, N^1-(3-Fluoro-5-(2-(5-(pyrazin-2-yl)-1H-pyrazolo[4,3-b]pyridin-3-yl)-3H-imidazo[4,5-c]pyridin-7-yl)phenyl)-N^2,N^2-dimethylethane-1,2-diamine] | 3.74 µM | 3.95 µM | 4.23 µM | > 10 µM | – | 41.3% |

Further lines, with some results ahead:

| EC50 (SW480 colon cancer cells) | EC50 [1] | EC50 (IL-6 in THP-1 cells) | Compound | EC50 [2] | inhibition at 10 µM (SW480 colon cancer cells) | inhibition at 10 µM ([2]; LL29 cells treated with TGF-β1, 4 days, at 10 μM, read-out: percent inhibition in brackets (given for EC50 >10 μM)) |
| --- | --- | --- | --- | --- | --- | --- |
| 4.63 µM | 4.03 µM | 0.003 µM | Cc1ccc(-c2cncc3[nH]c(-c4n[nH]c5ccc(-c6cncc(OC7CCCCC7)c6)nc45)nc23)s1 [Compound 691, 5-(5-(Cyclohexyloxy)pyridin-3-yl)-3-(7-(5-methylthiophen-2-yl)-3H-imidazo[4,5-c]pyridin-2-yl)-1H-pyrazolo[4,3-b]pyridine] | 1.75 µM | – | – |
| > 10 µM | 3.85 µM | 1.17 µM | Cc1ncc(-c2ccc3[nH]nc(-c4nc5c(-c6cc(F)cc(NCCN(C)C)c6)cncc5[nH]4)c3n2)n1C [Compound 737, N^1-(3-(2-(5-(1,2-Dimethyl-1H-imidazol-5-yl)-1H-pyrazolo[4,3-b]pyridin-3-yl)-3H-imidazo[4,5-c]pyridin-7-yl)-5-fluorophenyl)-N^2,N^2-dimethylethane-1,2-diamine] | 8.95 µM | 46.5% | – |
| 3.3 µM | 2.72 µM | 1.6 µM | CN(C)CCNc1cc(F)cc(-c2cncc3[nH]c(-c4n[nH]c5ccc(-c6cncc(OCc7ccccc7)c6)nc45)nc23)c1 [Compound 746, N^1-(3-(2-(5-(5-(Benzyloxy)pyridin-3-yl)-1H-pyrazolo[4,3-b]pyridin-3-yl)-3H-imidazo[4,5-c]pyridin-7-yl)-5-fluorophenyl)-N^2,N^2-dimethylethane-1,2-diamine] | 2.93 µM | – | – |
